Laboratory results as given in the supplement of paper PMC11451515.

Tests used:
Details in all cases: 48 h
NOMO1 [1] = test: cell viability relative to DMSO control; higher = less cytotoxic
Summary of the method: (§1)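 Library compounds in DMSO were pin-dosed into 1536-well plates (5 μl) holding NOMO1 or SEM (500 cells/well) or P12-Ichikawa (1000 cells/well) leukemia cells, across an 11-point threefold series of 47 μM to 0.79 nM. Each cell line had been adapted for at least four passages in each medium. CellTiter-Glo One luminescence was read after 48 h at 37°C. Viability is the per-plate percentage relative to DMSO wells, with cell-free wells as background.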

P12-Ichikawa [2] = test: as above
Summary of the method: as §1

SEM cells [3] = test: as above
Summary of the method: as §1

NOMO1 [4] = test: AUC of viability dose-response curve (% viability x log10 dose units); higher = less sensitive
Summary of the method: (§2)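 Leukemia cells adapted to each medium were seeded at 500 or 1000 cells/well in 1536-well plates and dosed with library compounds in DMSO at 11 threefold doses from 47 μM to 0.79 nM for 48 h at 37°C. CellTiter-Glo One luminescence was normalised per plate to DMSO and cell-free wells, then fitted with a four-parameter log-logistic model over log10 doses. Area under the curve was taken from this fit by the trapezoidal rule, with curves above full viability scaled and curves failing quality control removed.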

P12-Ichikawa [5] = test: as above
Summary of the method: as §2

SEM cells [6] = test: as above
Summary of the method: as §2

O=C(Nc1ccc(OC(F)(F)F)cc1)c1sccc1NCc1ccnc2ccccc12
cell viability [%]
Details	NOMO1 [1]	P12-Ichikawa [2]	SEM cells [3]
HPLM + 10% dialyzed FBS, 0.000781 µM	118	112	115
HPLM + 10% dialyzed FBS, 0.00234 µM	109	113	115
HPLM + 10% dialyzed FBS, 0.00702 µM	127	108	114
HPLM + 10% dialyzed FBS, 0.0211 µM	123	116	127
HPLM + 10% dialyzed FBS, 0.0632 µM	109	106	125
HPLM + 10% dialyzed FBS, 0.19 µM	110	112	115
HPLM + 10% dialyzed FBS, 0.569 µM	80.1	41.4	122
HPLM + 10% dialyzed FBS, 1.71 µM	43.1	12.8	82.3
HPLM + 10% dialyzed FBS, 5.12 µM	33.4	10.7	47.6
HPLM + 10% dialyzed FBS, 15.4 µM	33.8	8.54	24.8
HPLM + 10% dialyzed FBS, 46.1 µM	41.4	7.05	16.8
RPMI 5 mM glucose + 10% FBS, 0.000781 µM	118	106	–
RPMI 5 mM glucose + 10% FBS, 0.00234 µM	101	121	–
RPMI 5 mM glucose + 10% FBS, 0.00702 µM	117	118	–
RPMI 5 mM glucose + 10% FBS, 0.0211 µM	121	120	–
RPMI 5 mM glucose + 10% FBS, 0.0632 µM	112	118	–
RPMI 5 mM glucose + 10% FBS, 0.19 µM	105	113	–
RPMI 5 mM glucose + 10% FBS, 0.569 µM	108	102	–
RPMI 5 mM glucose + 10% FBS, 1.71 µM	96	72.6	–
RPMI 5 mM glucose + 10% FBS, 5.12 µM	52.8	25.9	–
RPMI 5 mM glucose + 10% FBS, 15.4 µM	22.6	10.3	–
RPMI 5 mM glucose + 10% FBS, 46.1 µM	25.3	9.62	–
RPMI 5 mM glucose + 10% dialyzed FBS, 0.000781 µM	105	109	122
RPMI 5 mM glucose + 10% dialyzed FBS, 0.00234 µM	106	119	117
RPMI 5 mM glucose + 10% dialyzed FBS, 0.00702 µM	113	111	127
RPMI 5 mM glucose + 10% dialyzed FBS, 0.0211 µM	117	120	135
RPMI 5 mM glucose + 10% dialyzed FBS, 0.0632 µM	107	108	125
RPMI 5 mM glucose + 10% dialyzed FBS, 0.19 µM	109	103	136
RPMI 5 mM glucose + 10% dialyzed FBS, 0.569 µM	116	110	130
RPMI 5 mM glucose + 10% dialyzed FBS, 1.71 µM	91.6	73.5	99.2
RPMI 5 mM glucose + 10% dialyzed FBS, 5.12 µM	57	33.1	87.8
RPMI 5 mM glucose + 10% dialyzed FBS, 15.4 µM	28	16.6	24.1
RPMI 5 mM glucose + 10% dialyzed FBS, 46.1 µM	36.1	16.1	15.8

AUC of viability dose-response curve
Details	NOMO1 [4]	P12-Ichikawa [5]	SEM cells [6]
HPLM + 10% dialyzed FBS	346	295	373
RPMI 5 mM glucose + 10% FBS	388	351	359
RPMI 5 mM glucose + 10% dialyzed FBS	395	363	395

CN(C)Cc1ccc(-c2nc3cccc4c3n2CCNC4=O)cc1
cell viability [%]
Details	NOMO1 [1]	P12-Ichikawa [2]	SEM cells [3]
HPLM + 10% dialyzed FBS, 0.000781 µM	91.1	90.5	100
HPLM + 10% dialyzed FBS, 0.00234 µM	99.5	100	105
HPLM + 10% dialyzed FBS, 0.00702 µM	115	105	93.5
HPLM + 10% dialyzed FBS, 0.0211 µM	116	103	114
HPLM + 10% dialyzed FBS, 0.0632 µM	124	109	114
HPLM + 10% dialyzed FBS, 0.19 µM	107	102	118
HPLM + 10% dialyzed FBS, 0.569 µM	109	112	122
HPLM + 10% dialyzed FBS, 1.71 µM	121	109	121
HPLM + 10% dialyzed FBS, 5.12 µM	129	108	127
HPLM + 10% dialyzed FBS, 15.4 µM	112	114	119
HPLM + 10% dialyzed FBS, 46.1 µM	99.4	110	113
RPMI 5 mM glucose + 10% FBS, 0.000781 µM	87.2	92.8	103
RPMI 5 mM glucose + 10% FBS, 0.00234 µM	108	96.3	106
RPMI 5 mM glucose + 10% FBS, 0.00702 µM	94.7	94.7	119
RPMI 5 mM glucose + 10% FBS, 0.0211 µM	103	108	117
RPMI 5 mM glucose + 10% FBS, 0.0632 µM	98.3	108	109
RPMI 5 mM glucose + 10% FBS, 0.19 µM	102	105	127
RPMI 5 mM glucose + 10% FBS, 0.569 µM	111	106	94.7
RPMI 5 mM glucose + 10% FBS, 1.71 µM	106	107	120
RPMI 5 mM glucose + 10% FBS, 5.12 µM	97.2	109	129
RPMI 5 mM glucose + 10% FBS, 15.4 µM	103	109	109
RPMI 5 mM glucose + 10% FBS, 46.1 µM	104	106	115
RPMI 5 mM glucose + 10% dialyzed FBS, 0.000781 µM	98	90.2	91.4
RPMI 5 mM glucose + 10% dialyzed FBS, 0.00234 µM	102	99.1	96.3
RPMI 5 mM glucose + 10% dialyzed FBS, 0.00702 µM	90.8	101	107
RPMI 5 mM glucose + 10% dialyzed FBS, 0.0211 µM	110	109	94.7
RPMI 5 mM glucose + 10% dialyzed FBS, 0.0632 µM	115	107	97.8
RPMI 5 mM glucose + 10% dialyzed FBS, 0.19 µM	119	111	107
RPMI 5 mM glucose + 10% dialyzed FBS, 0.569 µM	110	107	93
RPMI 5 mM glucose + 10% dialyzed FBS, 1.71 µM	116	108	98.7
RPMI 5 mM glucose + 10% dialyzed FBS, 5.12 µM	126	105	105
RPMI 5 mM glucose + 10% dialyzed FBS, 15.4 µM	124	102	110
RPMI 5 mM glucose + 10% dialyzed FBS, 46.1 µM	118	112	98.3

AUC of viability dose-response curve
Details	NOMO1 [4]	P12-Ichikawa [5]	SEM cells [6]
HPLM + 10% dialyzed FBS	464	461	455
RPMI 5 mM glucose + 10% FBS	458	463	459
RPMI 5 mM glucose + 10% dialyzed FBS	452	466	462
